In PubChem BioAssay (NCI):
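GI50 = concentration required for 50% inhibition of growth. TGI denotes the concentration required for complete inhibition of growth.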

Legend:
Assay in all cases: NCI tumour cell line growth inhibition, 384-well format
TK-10 renal = tested on: TK-10 renal
MCF7 breast = tested on: MCF7 breast
HL-60(TB) leukemia = tested on: HL-60(TB) leukemia
HCT-116 colon = tested on: HCT-116 colon
SK-MEL-28 melanoma = tested on: SK-MEL-28 melanoma
HOP-92 NSCLC = tested on: HOP-92 NSCLC
NCI-H522 lung = tested on: NCI-H522 lung
HCT-15 colon = tested on: HCT-15 colon
HT29 colon = tested on: HT29 colon
ACHN renal = tested on: ACHN renal
OVCAR-8 ovarian = tested on: OVCAR-8 ovarian
SF-268 CNS = tested on: SF-268 CNS
OVCAR-5 ovarian = tested on: OVCAR-5 ovarian
SN12C renal = tested on: SN12C renal
MALME-3M melanoma = tested on: MALME-3M melanoma
HCC-2998 colon = tested on: HCC-2998 colon
COLO 205 colon = tested on: COLO 205 colon
SF-295 CNS = tested on: SF-295 CNS
UO-31 renal = tested on: UO-31 renal
CAKI-1 renal = tested on: CAKI-1 renal
OVCAR-4 ovarian = tested on: OVCAR-4 ovarian
SW-620 colon = tested on: SW-620 colon
UACC-62 melanoma = tested on: UACC-62 melanoma
NCI-H460 NSCLC = tested on: NCI-H460 NSCLC
SR leukemia = tested on: SR leukemia
HOP-62 NSCLC = tested on: HOP-62 NSCLC
NCI-H23 lung = tested on: NCI-H23 lung
MDA-MB-231 breast = tested on: MDA-MB-231 breast
SK-MEL-5 melanoma = tested on: SK-MEL-5 melanoma
MDA-MB-435 melanoma = tested on: MDA-MB-435 melanoma
U251 glioblastoma = tested on: U251 glioblastoma
BT-549 breast = tested on: BT-549 breast
SK-OV-3 ovarian = tested on: SK-OV-3 ovarian
A549 NSCLC = tested on: A549 NSCLC
OVCAR-3 ovarian = tested on: OVCAR-3 ovarian
CCRF-CEM leukemia = tested on: CCRF-CEM leukemia
LOX IMVI melanoma = tested on: LOX IMVI melanoma
786-0 renal = tested on: 786-0 renal
SF-539 CNS = tested on: SF-539 CNS
A498 renal = tested on: A498 renal
MDA-MB-468 breast = tested on: MDA-MB-468 breast
RXF 393 renal = tested on: RXF 393 renal
KM12 colon = tested on: KM12 colon
UACC-257 melanoma = tested on: UACC-257 melanoma
M14 melanoma = tested on: M14 melanoma
DU-145 prostate = tested on: DU-145 prostate
T-47D breast = tested on: T-47D breast
NCI-H322M lung = tested on: NCI-H322M lung
PC-3 prostate = tested on: PC-3 prostate
NCI-H226 lung = tested on: NCI-H226 lung
NCI/ADR-RES ovarian = tested on: NCI/ADR-RES ovarian
MOLT-4 leukemia = tested on: MOLT-4 leukemia
SK-MEL-2 melanoma = tested on: SK-MEL-2 melanoma
IGROV1 ovarian = tested on: IGROV1 ovarian
RPMI-8226 leukemia = tested on: RPMI-8226 leukemia
SNB-19 CNS = tested on: SNB-19 CNS
K-562 leukemia = tested on: K-562 leukemia

SMILES: COc1cc2c(cc1OC(C)C)[C@H](c1ccc(Cl)cc1)N(c1ccc(N(C)CC3CCC(N4CCN(C)C(=O)C4)CC3)cc1)C(=O)C2 (some centres undefined)
- GI50 (TK-10 renal): 1.82 µM
- TGI (TK-10 renal): 3.31 µM
- GI50 (MCF7 breast): 0.378 µM
- TGI (MCF7 breast): 1.57 µM
- GI50 (HL-60(TB) leukemia): 1.96 µM
- TGI (HL-60(TB) leukemia): 3.38 µM
- GI50 (HCT-116 colon): 0.349 µM
- TGI (HCT-116 colon): 1.49 µM
- GI50 (SK-MEL-28 melanoma): 1.79 µM
- TGI (SK-MEL-28 melanoma): 3.19 µM
- GI50 (HOP-92 NSCLC): 1.59 µM
- TGI (HOP-92 NSCLC): 2.96 µM
- GI50 (NCI-H522 lung): 1.86 µM
- TGI (NCI-H522 lung): 3.33 µM
- GI50 (HCT-15 colon): 1.82 µM
- TGI (HCT-15 colon): 3.26 µM
- GI50 (HT29 colon): 1.79 µM
- TGI (HT29 colon): 3.22 µM
- GI50 (ACHN renal): 0.243 µM
- TGI (ACHN renal): 1.28 µM
- GI50 (OVCAR-8 ovarian): 1.82 µM
- TGI (OVCAR-8 ovarian): 3.25 µM
- GI50 (SF-268 CNS): 1.9 µM
- TGI (SF-268 CNS): 3.34 µM
- GI50 (OVCAR-5 ovarian): 1.85 µM
- TGI (OVCAR-5 ovarian): 3.31 µM
- GI50 (SN12C renal): 1.81 µM
- TGI (SN12C renal): 3.22 µM
- GI50 (MALME-3M melanoma): 1.18 µM
- TGI (MALME-3M melanoma): 2.43 µM
- GI50 (HCC-2998 colon): 1.73 µM
- TGI (HCC-2998 colon): 3.12 µM
- GI50 (COLO 205 colon): 1.86 µM
- TGI (COLO 205 colon): 3.29 µM
- GI50 (SF-295 CNS): 1.62 µM
- TGI (SF-295 CNS): 2.99 µM
- GI50 (UO-31 renal): 0.288 µM
- TGI (UO-31 renal): 1.31 µM
- GI50 (CAKI-1 renal): 0.146 µM
- TGI (CAKI-1 renal): 1.18 µM
- GI50 (OVCAR-4 ovarian): 1.76 µM
- TGI (OVCAR-4 ovarian): 3.18 µM
- GI50 (SW-620 colon): 1.91 µM
- TGI (SW-620 colon): 3.36 µM
- GI50 (UACC-62 melanoma): 0.0924 µM
- TGI (UACC-62 melanoma): 1.58 µM
- GI50 (NCI-H460 NSCLC): 0.316 µM
- TGI (NCI-H460 NSCLC): 1.42 µM
- GI50 (SR leukemia): 0.0291 µM
- TGI (SR leukemia): 0.101 µM
- GI50 (HOP-62 NSCLC): 2.07 µM
- TGI (HOP-62 NSCLC): 3.52 µM
- GI50 (NCI-H23 lung): 1.93 µM
- TGI (NCI-H23 lung): 4.37 µM
- GI50 (MDA-MB-231 breast): 1.8 µM
- TGI (MDA-MB-231 breast): 3.2 µM
- GI50 (SK-MEL-5 melanoma): 1.3 µM
- TGI (SK-MEL-5 melanoma): 2.58 µM
- GI50 (MDA-MB-435 melanoma): 2.01 µM
- TGI (MDA-MB-435 melanoma): 3.46 µM
- GI50 (U251 glioblastoma): 1.75 µM
- TGI (U251 glioblastoma): 3.16 µM
- GI50 (BT-549 breast): 1.58 µM
- TGI (BT-549 breast): 2.94 µM
- GI50 (SK-OV-3 ovarian): 1.58 µM
- TGI (SK-OV-3 ovarian): 2.94 µM
- GI50 (A549 NSCLC): 0.387 µM
- TGI (A549 NSCLC): 1.55 µM
- GI50 (OVCAR-3 ovarian): 1.69 µM
- TGI (OVCAR-3 ovarian): 3.08 µM
- GI50 (CCRF-CEM leukemia): 1.94 µM
- TGI (CCRF-CEM leukemia): 3.36 µM
- GI50 (LOX IMVI melanoma): 0.946 µM
- TGI (LOX IMVI melanoma): 2.13 µM
- GI50 ([…]-0 renal): 1.72 µM
- TGI (786-0 renal): 3.12 µM
- GI50 (SF-539 CNS): 1.74 µM
- TGI (SF-539 CNS): 3.14 µM
- GI50 (A498 renal): 0.24 µM
- TGI (A498 renal): 1.32 µM
- GI50 (MDA-MB-468 breast): 2.03 µM
- TGI (MDA-MB-468 breast): 3.47 µM
- GI50 (RXF 393 renal): 1.69 µM
- TGI (RXF 393 renal): 3.07 µM
- GI50 (KM12 colon): 1.9 µM
- TGI (KM12 colon): 3.35 µM
- GI50 (UACC-257 melanoma): 1.35 µM
- TGI (UACC-257 melanoma): 2.64 µM
- GI50 (M14 melanoma): 0.943 µM
- TGI (M14 melanoma): 2.16 µM
- GI50 (DU-145 prostate): 1.92 µM
- TGI (DU-145 prostate): 3.51 µM
- GI50 (T-47D breast): 1.76 µM
- TGI (T-47D breast): 3.23 µM
- GI50 (NCI-H322M lung): 1.71 µM
- TGI (NCI-H322M lung): 3.27 µM
- GI50 (PC-3 prostate): 1.79 µM
- TGI (PC-3 prostate): 3.19 µM
- GI50 (NCI-H226 lung): 0.134 µM
- TGI (NCI-H226 lung): 0.374 µM
- GI50 (NCI/ADR-RES ovarian): 1.77 µM
- TGI (NCI/ADR-RES ovarian): 3.22 µM
- GI50 (MOLT-4 leukemia): 0.0378 µM
- TGI (MOLT-4 leukemia): 0.138 µM
- GI50 (SK-MEL-2 melanoma): 1.81 µM
- TGI (SK-MEL-2 melanoma): 3.21 µM
- GI50 (IGROV1 ovarian): 1.37 µM
- TGI (IGROV1 ovarian): 2.7 µM
- GI50 (RPMI-8226 leukemia): 1.53 µM
- TGI (RPMI-8226 leukemia): 2.88 µM
- GI50 (SNB-19 CNS): 1.94 µM
- TGI (SNB-19 CNS): 3.49 µM
- GI50 (K-562 leukemia): 1.76 µM
- TGI (K-562 leukemia): 3.17 µM
